Data set [1] concerns HBV. In words: Selectivity index (CC50 value/EC50 value). In kind it is cell-based, Hepatitis B virus. In short, it runs like this:
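Ratio of CC50 to EC50, measuring antiviral activity against HBV relative to cytotoxicity in vitro; higher values indicate greater separation between viral inhibition and cell death.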

Data set [2] in a line: Lyophilisation solubility assay (Lysa). Conditions: phosphate buffer, pH 6.5, aqueous buffer, thermodynamic from solid. Format: physicochemical. In short, it runs like this: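 Duplicate samples from 10 mM DMSO stocks are dried, redissolved in 0.05 M phosphate buffer pH 6.5, stirred 1 h, shaken 2 h and left overnight. Filtrate and its 1/10 dilution are quantified by direct UV or HPLC-UV, giving solubility in μg/mL.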

For data set [3], the system named is HBV. In words: Anti-HBV activity in vitro in HepG2.2.15 cells (extracellular HBV DNA by qPCR). In kind it is cell-based, Hepatitis B virus. Conditions: Hepatitis B virus. In short, it runs like this:
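HepG2.2.15 cells, which constitutively produce HBV, were seeded overnight and then treated for 5 days with half-log serially diluted compounds at 0.5% final DMSO. Extracellular HBV DNA in culture supernatant was extracted and quantified by qPCR.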

Data set [4] is described as follows: Metabolic stability study in human microsome. In kind it is in vitro ADME. In short, it runs like this:
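Human liver microsomes (0.5 mg/mL) with 1 μM compound in 100 mM phosphate pH 7.4 at 37 °C, started with 1 mM NADPH or an NADPH-regenerating system. Samples taken at 0, 3, 6, 9, 15 and 30 min, quenched in methanol. Parent remaining measured by LC-MS/MS; no-cofactor controls included.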

Another data set relates to HepDE19 cells. In words: Cytotoxicity (CC50) in HepDE19 cells, CCK-8 cell viability. In kind it is cell-based. The essentials:
(§1)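 HBV-transfected HepG2-derived HepDE19 cells grown in DMEM-F12 with 10% FBS and G418. Viability read five days after treatment by CCK-8, 2 h at 37 °C, absorbance at 450 and 630 nm.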

Assay in data set [5]: as above
In kind it is cell-based. Conditions: human, HepDE19 cells; read-out: CC50. In short, it runs like this:
as §1

Setting [6] is: HepG2.2.15 cells, in-house data, read-out: EC50.

SMILES strings stand for the structures. Values after ≈ are worked out from the molar mass of the structure shown. Where two headings read alike, the source gives them in different places.

Consider `CCOC(=O)C1=C(CN2CCOC[C@H]2C(=O)O)NC(c2nccs2)=N[C@H]1c1ccc(F)c(F)c1C` [Example 96, (S)-4-[(S)-6-(3,4-Difluoro-2-methyl-phenyl)-5-ethoxycarbonyl-2-thiazol-2-yl-3,6-dihydro-pyrimidin-4-ylmethyl]-morpholine-3-carboxylic acid], for which, in the data set with HBV [1], the “Selectivity index (CC50/EC50)” value came out at 161667. In data set [2], this compound showed a thermodynamic solubility above 628 µg/mL. Besides, the EC50 in the data set with HBV [3] (setting [6]) is 0.6 nM. Besides, in data set [4], the “Human Hepatic Clearance” value amounted to 4.8 mL/min/kg. The same compound gave a cytotoxic concentration (CC50) in the data set on HepDE19 cells of 97000 nM.

On to `CCOC(=O)C1=C(CN2CCOC[C@H]2C(=O)O)NC(c2nccs2)=N[C@H]1c1ccc(F)c(F)c1Cl` [Example 60, (S)-4-[(R)-6-(2-Chloro-3,4-difluoro-phenyl)-5-ethoxycarbonyl-2-thiazol-2-yl-3,6-dihydro-pyrimidin-4-ylmethyl]-morpholine-3-carboxylic acid], for which the “Selectivity index (CC50/EC50)” value with HBV [1] was found to be 47783. Also, the thermodynamic solubility in data set [2] is above 703 µg/mL. Besides, the EC50 with HBV [3] (setting [6]) stood at 0.6 nM. Moreover, in data set [4], the “Human Hepatic Clearance” value was 4.8 mL/min/kg. In addition, the CC50 with HepDE19 cells amounted to 29000 nM.

With `COC(=O)C1=C(CN2CCOC[C@H]2C(=O)O)NC(c2nccs2)=N[C@H]1c1ccc(F)c(F)c1Cl` [Example 73, (S)-4-[(R)-6-(2-Chloro-3,4-difluoro-phenyl)-5-methoxycarbonyl-2-thiazol-2-yl-3,6-dihydro-pyrimidin-4-ylmethyl]-morpholine-3-carboxylic acid], the “Selectivity index (CC50/EC50)” value in the data set on HBV [1] is above 83333. The compound also had a solubility (thermodynamic) in data set [2] above 656 µg/mL. Further, the EC50 with HBV [3] (setting [6]) is 1.2 nM. The “Human Hepatic Clearance” value in data set [4] was determined as 0 mL/min/kg. The same compound had a CC50 in the data set with HepDE19 cells above 100000 nM.

As for `COC(=O)C1=C(CN2CCO[C@H](C(C)C)[C@H]2C(=O)O)NC(c2nccs2)=N[C@H]1c1ccc(F)cc1Cl` [Example 120, (2R,3S)-4-[(R)-6-(2-Chloro-4-fluoro-phenyl)-5-methoxycarbonyl-2-thiazol-2-yl-3,6-dihydro-pyrimidin-4-ylmethyl]-2-isopropyl-morpholine-3-carboxylic acid], in the data set on HBV [1], the “Selectivity index (CC50/EC50)” value is listed as 16875. In addition, the EC50 with HBV [3] (setting [6]) amounted to 4.8 nM. In data set [4], the “Human Hepatic Clearance” value amounted to 2.58 mL/min/kg. Moreover, in the data set with HepDE19 cells, the CC50 was 81000 nM.

Take `COC(=O)C1=C(CN2CC(F)(F)CC[C@H]2C(=O)O)NC(c2nccs2)=N[C@H]1c1cccc(F)c1Cl` [Example 109, (R)-6-((S)-2-Carboxy-5,5-difluoro-piperidin-1-ylmethyl)-4-(2-chloro-3-fluoro-phenyl)-2-thiazol-2-yl-1,4-dihydro-pyrimidine-5-carboxylic acid methyl ester]: the “Selectivity index (CC50/EC50)” value with HBV [1] is on record as 12500. This compound had a solubility (thermodynamic) in data set [2] above 657 µg/mL. The EC50 in the data set on HBV [3] (setting [6]) came to 4.4 nM. Further, in data set [4], the “Human Hepatic Clearance” value is 1.25 mL/min/kg. Moreover, in data set [5], the CC50 at 5 days is 55000 nM.

Consider `CCOC(=O)C1=C(CN2CCOC[C@H]2C(=O)O)NC(c2nccs2)=N[C@H]1c1cccc(F)c1F` [Example 70, (S)-4-[(R)-6-(2,3-Difluoro-phenyl)-5-ethoxycarbonyl-2-thiazol-2-yl-3,6-dihydro-pyrimidin-4-ylmethyl]-morpholine-3-carboxylic acid], for which the “Selectivity index (CC50/EC50)” value with HBV [1] is above 11236. In data set [2], this compound showed a thermodynamic solubility above 611 µg/mL. In the data set with HBV [3] (setting [6]), the EC50 turned out to be 8.9 nM. Moreover, the “Human Hepatic Clearance” value in data set [4] is given as 2.22 mL/min/kg. In addition, the CC50 at 5 days in data set [5] was above 100000 nM.

On to `COC(=O)C1=C(CN2CCOC[C@H]2C(=O)O)NC(c2ncoc2C)=N[C@H]1c1cccc(F)c1Cl` [Example 103, (S)-4-[(R)-6-(2-Chloro-3-fluoro-phenyl)-5-methoxycarbonyl-2-(5-methyl-oxazol-4-yl)-3,6-dihydro-pyrimidin-4-ylmethyl]-morpholine-3-carboxylic acid], for which the “Selectivity index (CC50/EC50)” value with HBV [1] was above 6803. The same compound displayed a thermodynamic solubility in data set [2] above 643 µg/mL. Moreover, in the data set with HBV [3] (setting [6]), the EC50 was 15 nM. In addition, the “Human Hepatic Clearance” value in data set [4] was 2.81 mL/min/kg. For the same compound, in data set [5], the CC50 at 5 days was above 100000 nM.

As for `CCOC(=O)C1=C(CN2CC(F)(F)C[C@H]2C(=O)O)NC(c2nccs2)=N[C@H]1c1ccc(Cl)cc1Cl` [Example 38, (R)-6-((S)-2-Carboxy-4,4-difluoro-pyrrolidin-1-ylmethyl)-4-(2,4-dichloro-phenyl)-2-thiazol-2-yl-1,4-dihydro-pyrimidine-5-carboxylic acid ethyl ester], the “Selectivity index (CC50/EC50)” value in the data set with HBV [1] is recorded as 6315. Further, in data set [2], the solubility (thermodynamic) was 291 µg/mL (≈ 534 µM). Besides, in the data set on HBV [3] (setting [6]), the half-maximal effective concentration (EC50) came out at 3.3 nM. Moreover, the “Human Hepatic Clearance” value in data set [4] turned out to be 9.3 mL/min/kg. Besides, in data set [5], the CC50 at 5 days is 21000 nM.

As for `CCOC(=O)C1=C(CN2CCOC[C@H]2C(=O)O)NC(c2nccs2)=N[C@H]1c1ccc(Br)cc1F` [Example 93, (S)-4-[(R)-6-(4-Bromo-2-fluoro-phenyl)-5-ethoxycarbonyl-2-thiazol-2-yl-3,6-dihydro-pyrimidin-4-ylmethyl]-morpholine-3-carboxylic acid], the “Selectivity index (CC50/EC50)” value in the data set on HBV [1] is listed as 6977. For the same compound, the thermodynamic solubility in data set [2] was above 690 µg/mL. In addition, the EC50 in the data set on HBV [3] (setting [6]) is 4.3 nM. For the same compound, the “Human Hepatic Clearance” value in data set [4] is 1.24 mL/min/kg. In addition, in data set [5], the CC50 at 5 days came out at 30000 nM.

For the compound `COC(=O)C1=C(CN2CCOC[C@H]2C(=O)O)NC(c2nccs2)=N[C@H]1c1ccc(Cl)c(F)c1` [Example 77, (S)-4-[(S)-6-(4-Chloro-3-fluoro-phenyl)-5-methoxycarbonyl-2-thiazol-2-yl-3,6-dihydro-pyrimidin-4-ylmethyl]-morpholine-3-carboxylic acid], the “Selectivity index (CC50/EC50)” value with HBV [1] was found to be 14286. Also, the thermodynamic solubility in data set [2] was above 631 µg/mL. The compound further yielded a 50% effective concentration (EC50) in the data set on HBV [3] (HepG2.2.15) of 7 nM. Also, in data set [4], the “Human Hepatic Clearance” value stood at 1.43 mL/min/kg. In data set [5], the CC50 at 5 days is above 100000 nM.

Turning to `COC(=O)C1=C(CN2CC(F)(F)C[C@H]2C(=O)O)NC(c2nccn2C)=N[C@H]1c1ccc(F)cc1Cl` [Example 32, (R)-6-((S)-2-Carboxy-4,4-difluoro-pyrrolidin-1-ylmethyl)-4-(2-chloro-4-fluoro-phenyl)-2-(1-methyl-1H-imidazol-2-yl)-1,4-dihydro-pyrimidine-5-carboxylic acid methyl ester], the “Selectivity index (CC50/EC50)” value in the data set with HBV [1] is listed as 3125. In data set [2], this compound returned a thermodynamic solubility of 632 µg/mL (≈ 1230 µM). The EC50 with HBV [3] (setting [6]) is 13 nM. Moreover, in data set [4], the “Human Hepatic Clearance” value is reported as 5.04 mL/min/kg. In addition, the CC50 at 5 days in data set [5] stood at 40000 nM.

In the case of `COC(=O)C1=C(CN2CCOC[C@]2(C)C(=O)O)NC(c2nccs2)=N[C@H]1c1ccc(F)c(F)c1Cl` (single isomer, unassigned) [Example 79], the “Selectivity index (CC50/EC50)” value in the data set on HBV [1] was found to be 16889. In addition, the thermodynamic solubility in data set [2] was above 660 µg/mL. The half-maximal effective concentration (EC50) with HBV [3] (setting [6]) stood at 4.5 nM. Besides, in data set [4], the “Human Hepatic Clearance” value is reported as 2.18 mL/min/kg. The CC50 at 5 days in data set [5] came to 76000 nM.

As for `CCOC(=O)C1=C(CN2CCOC[C@H]2C(=O)O)NC(c2nccs2)=N[C@H]1c1ccc(F)c(F)c1F` [Example 44, (S)-4-[(R)-5-Ethoxycarbonyl-2-thiazol-2-yl-6-(2,3,4-trifluoro-phenyl)-3,6-dihydro-pyrimidin-4-ylmethyl]-morpholine-3-carboxylic acid], the “Selectivity index (CC50/EC50)” value in the data set with HBV [1] is listed as 10748. Moreover, the thermodynamic solubility in data set [2] is above 626 µg/mL. Also, the EC50 in the data set with HBV [3] (setting [6]) came out at 4.6 nM. The “Human Hepatic Clearance” value in data set [4] is 4.46 mL/min/kg. Besides, the CC50 at 5 days in data set [5] was determined as 49000 nM.

By solubility (thermodynamic) is commonly meant the concentration in solution at equilibrium with solid. Broadly, the EC50 is the concentration at which the effect is half-maximal. Broadly, the CC50 is the concentration that lowers cell viability or growth by half.
